The values that follow come from paper PMC7177633, “Effective Cellular Transport of Ortho-Halogenated Sulfonamide Derivatives of Metformin Is Related to Improved Antiproliferative Activity and Apoptosis Induction in MCF-7 Cells” (International Journal of Molecular Sciences, 2020).

Data set [1] has as its system OCTs. Kind of data set: Inhibition of [14C]choline uptake in MCF-7 cells (competitive inhibition assay). The format is cell-based, human. As to conditions: mean ± SD (n = 3). On the procedure: (§1) The following day, after removal of the culture medium, the cells were carefully washed with prewarmed HBSS (Hanks’ balanced salt solution) containing 125 mM NaCl, 4.8 mM KCl, 1.2 mM MgSO4, 1.2 mM KH2PO4, 1.3 mM CaCl2, 5.6 mM glucose and 25 mM HEPES (pH 7.4). […] Then, the cells were washed three times with ice-cold HBSS (500 μL) and were lysed with 250 μL of 0.1-M NaOH in the ice bath, and the lysate was mixed with 1.0 mL of an emulsifier safe cocktail (PerkinElmer, Waltham, MA, USA). The radioactivity was measured by liquid scintillation counting (MicroBeta^2 counter, PerkinElmer, Waltham, MA, USA). The studies were carried out with the use of at least three replicates from the same cell passage.

The subject of data set [2] is MDA-MB-231 cells. The experiment in a line: Uptake in the presence of OCT and MATE inhibitors, MDA-MB-231 cells. The data set is classed as in vitro ADME, human. The note with it: for interactions with OCT, PMAT and MATE1 transporters, MDA-MB-231: summary from uptake with inhibitors. On the procedure: (§2) The uptake of sulfonamide derivatives of metformin (1–9) in MCF-7 and MDA-MB-231 cells was studied also in the presence of disopyramide, cimetidine (OCT1 and 3 inhibitors), lopinavir (OCT and PMAT inhibitor) and methenamine (MATE and OCT2 inhibitors). The cells were incubated (37 °C, 10 min) with compounds 1–9 at concentrations of 400 and 800 μmol/L and inhibitors (disopyramide, cimetidine, lopinavir or methenamine) in 250 μL of prewarmed HBSS buffer. The protocol of determination of the compound concentration was as described above.

Data set [3] relates to MCF-7 cells. The experiment in a line: Cell viability WST-1 assay, MCF-7. The format is cell-based. The note with it: Homo sapiens, MCF7; WST-1, 24 h, mean ± SD (n = 6–8); read-out: IC50 inhibition of MCF-7 cells' viability. On the procedure: (§3) The viability of MCF-7 and MDA-MB-231 cells was determined using a colorimetric WST-1 assay (Takara, Takara Bio Europe, Saint-Germain-en-Laye, France). Both cell lines were seeded at a density of 1 × 10^4 per well on 96-well plates and were cultured for 24 h to obtain 70% confluence. The following day, the cells were treated with various concentrations of compounds 1–9 diluted in the cell culture medium ([…]). The cells were incubated with tested compounds or pure medium (control) for 24 h (37 °C, 5% CO2). Afterwards, the cells were washed with 100 μL of culture medium, and then, the reagent dissolved in the medium was added (100 μL). The plates were incubated at the standard condition for 1.5 h, and the absorbance was read at 450 nm using a microplate reader (iMARK, Bio-Rad, Bio-Rad Laboratories Inc., Hercules, CA, USA). […] The results of samples treated with the test compounds were expressed as a percentage of the control samples. The data were presented as mean ± standard deviation (SD), n = 8. IC50 values (the concentration of the tested compound that inhibited cell growth by 50%) were calculated using a concentration-response curve (GraphPad Prism, Software, San Diego, CA, USA).
(§4) The concentrations contributing to the 50% of cell growth inhibition (IC50) were calculated using nonlinear regression analysis (fitting the curve to log (concentration) vs. cellular response).
A general note: Formazan colour is commonly taken as a measure of viable cells.

In data set [4] the test system is MDA-MB-231 cells. The experiment in a line: Cell viability WST-1 assay, MDA-MB-231. As to conditions: Homo sapiens, WST-1, 24 h. The format is cell-based. On the procedure: as §3, §4
For data set [5], the system named is MDA-MB-231 cells. Kind of data set: Cellular uptake of metformin sulfonamides in MDA-MB-231 cells (HPLC). The format is in vitro ADME, human. Here is the method:
(§5) The uptake of metformin sulfonamides (1–9) in MCF-7 and MDA-MB-231 cells was studied by incubation of the cells with 10−3000 μmol/L of compounds in 250 μL of prewarmed HBSS buffer at 37 °C for 10 min. Subsequently, the cells were then washed three times with 500 μL of ice-cold HBSS and lysed with 250 μL of 0.1-M NaOH. The samples were collected, centrifuged (5 min, 1400 rpm) and the supernatants were analyzed by the HPLC method. The concentration of each compound in the cells was calculated on the basis of the standard curve prepared by spiking known amounts of every compound on the cell layers in 250 μL of 0.1-M NaOH.
(§6) The concentration of the studied sulfonamides (1–9) was assessed using the HPLC system, consisting of an Agilent 1100 binary pump (Agilent Technologies Inc., Wilmington, DE, USA), an 1100 micro-vacuum degasser, an HP 1050 autosampler and an HP 1050 variable wavelength detector (operated at 235 nm). The chromatographic separations of compounds 1–9 were conducted on an Agilent Zorbax SB-C18 analytical column (4.6 mm × 150 mm, 5 μm) using an isocratic elution of water containing 0.1% formic acid (pH ca. 3.0) and acetonitrile containing 0.1% formic acid with a changing ratio, depending on the compound. The analyses were conducted at room temperature (RT). The detailed procedure of chromatographic analysis was described in our previous paper. The studies were conducted in quadruplicates.
(§7) The protein concentrations in representative wells of each plate were assessed using a Bio-Rad protein assay according to the Bradford method (EnVision, PerkinElmer, Inc., Waltham, MA, USA).

Data set [6] relates to MCF-7 cells. Kind of data set: Uptake in the presence of OCT and MATE inhibitors, MCF-7 cells. The data set is classed as in vitro ADME, human. The note with it: for uptake in the presence of disopyramide, MCF-7 / uptake in the presence of lopinavir, MCF-7 / uptake in the presence of methenamine, MCF-7: compound and inhibitor 400 and 800 µmol/L, 10 min, 37 °C; for interactions with OCT, PMAT and MATE1 transporters, MCF-7: summary from uptake with inhibitors. On the procedure: as §2

In data set [7] the test system is OCTs. Kind of data set: Inhibition of [14C]choline uptake in MDA-MB-231 cells (competitive inhibition assay). The note with it: mean ± SD (n = 3). The data set is classed as cell-based, human. On the procedure:
as §1

The subject of data set [8] is MCF-7 cells. Kind of data set: Cellular uptake of metformin sulfonamides in MCF-7 cells (HPLC). The format is in vitro ADME, human. Here is the method:
as §5, §6, §7

The mark [9] stands for this setting: Eadie-Hofstee analysis, transporter I.
Where [10] appears, read: Eadie-Hofstee analysis, transporter I, read-out: Km, transporter I, MDA-MB-231.
Setting [11] is: Eadie-Hofstee analysis, transporter II.
Where [12] appears, read: Eadie-Hofstee analysis, transporter II, read-out: Km, transporter II, MDA-MB-231.
Where [13] appears, read: Eadie-Hofstee analysis, transporter I, read-out: Km, transporter I, MCF-7.
Setting [14] is: Eadie-Hofstee analysis, transporter II, read-out: Km, transporter II, MCF-7.
Setting [15] is: compound and inhibitor 400 and 800 µmol/L, 10 min, 37 °C.
Setting [16] is: 800 μmol/L, 10 min incubation, 37 °C.

Read-outs that look alike come from different tables or passages of the source.

By IC50 is commonly meant the midpoint of a concentration-inhibition curve. A word on the viability: it is a read-out of living cells in per cent, often relative to untreated cells. In general, Km refers to the substrate concentration at which the rate is half of its maximum.

Regarding `CN(C)C(=N)N=C(N)NS(=O)(=O)c1cccc(Br)c1` [Compound 5], the values for the half-maximal inhibitory concentration (IC50) in the data set with OCTs [1], with MCF-7 cells [3] and in the data set with OCTs [7] were 0.888 ± 0.0114 mM, 106 ± 12.3 µM and 0.593 ± 0.015 mM, respectively. Moreover, the “interactions with OCT, PMAT and MATE1 transporters, MDA-MB-231” value in the data set with MDA-MB-231 cells [2] is “OCT1, OCT3”. In addition, in the data set on MDA-MB-231 cells [4] (MDA-MB-231, 24 h, 3000 µmol/L, read-out: percentage of viability of MDA-MB-231 cells), the viability at 3000 µM was around 60%. In addition, in the data set on MDA-MB-231 cells [5] (setting [9]), the “Vmax, transporter I, MDA-MB-231” value is given as 0.038 ± 0.004 nmol/min/mg. In addition, the Michaelis-Menten constant (Km) in the data set with MDA-MB-231 cells [5] (setting [10]) was 0.468 ± 0.109 mM; in the data set on MDA-MB-231 cells [5] (setting [12]), 1.07 ± 0.204 mM; with MCF-7 cells [8] (setting [13]), 3.62 ± 0.619 mM; in the data set with MCF-7 cells [8] (setting [14]), 6.85 ± 0.713 mM; in the data set with MCF-7 cells [8] (Michaelis-Menten curve, read-out: Km MCF-7 (Michaelis Menten curves)), 4.94 ± 1.34 mM. Further, the “Vmax, transporter II, MDA-MB-231” value in the data set on MDA-MB-231 cells [5] (setting [11]) is reported as 0.098 ± 0.011 nmol/min/mg. Also, the “uptake in the presence of disopyramide, MCF-7” value with MCF-7 cells [6] is recorded as “significantly reduced”. Besides, the “uptake in the presence of lopinavir, MCF-7” value in the data set with MCF-7 cells [6] is “increased”. Also, in the data set with MCF-7 cells [6], the “uptake in the presence of methenamine, MCF-7” value is listed as “increased”. Also, the “interactions with OCT, PMAT and MATE1 transporters, MCF-7” value with MCF-7 cells [6] is reported as “OCT1, MATE1, PMAT”. Further, in the data set on MCF-7 cells [8] (setting [9]), the “Vmax, transporter I, MCF-7” value is recorded as 1.635 ± 0.21 nmol/min/mg. Moreover, in the data set with MCF-7 cells [8] (setting [11]), the “Vmax, transporter II, MCF-7” value stood at 2.167 ± 0.196 nmol/min/mg. Besides, the “Vmax MCF-7 (Michaelis Menten curves)” value with MCF-7 cells [8] (Michaelis-Menten curve) was 1.87 ± 0.95 nmol/min/mg.

As for `CN(C)C(=N)N=C(N)NS(=O)(=O)c1ccc(Br)cc1` [Compound 6], the IC50 in the data set with OCTs [1] was found to be 2.06 ± 0.0584 mM; with MCF-7 cells [3] it was 1140 ± 139 µM; in the data set with MDA-MB-231 cells [4] (MDA-MB-231, mean ± SD (n = 6–8), read-out: IC50 inhibition of MDA-MB-231 cells' viability), 2.11 ± 0.137 mM; in the data set with OCTs [7], 2.49 ± 0.211 mM. Besides, the “uptake in the presence of cimetidine, MDA-MB-231” value in the data set on MDA-MB-231 cells [2] (setting [15]) is listed as “significantly decreased”. For the same molecule, the “uptake in the presence of disopyramide, MDA-MB-231” value in the data set on MDA-MB-231 cells [2] (setting [15]) is listed as “significantly decreased”. Also, in the data set with MDA-MB-231 cells [2] (setting [15]), the “uptake in the presence of methenamine, MDA-MB-231” value is recorded as “significantly decreased”. For the same molecule, the “interactions with OCT, PMAT and MATE1 transporters, MDA-MB-231” value with MDA-MB-231 cells [2] was “OCT1, OCT3, MATE1”. Besides, the “uptake into MDA-MB-231 cells” value in the data set on MDA-MB-231 cells [5] (setting [16]) is listed as 0.75 ± 0.29 nmol/min/mg protein. The “Vmax, transporter I, MDA-MB-231” value in the data set with MDA-MB-231 cells [5] (setting [9]) was 2.644 ± 0.22 nmol/min/mg. Further, the Km turned out to be 1.93 ± 0.223 mM in the data set with MDA-MB-231 cells [5] (setting [10]); 2.11 ± 0.172 mM in the data set with MDA-MB-231 cells [5] (setting [12]); 3.75 ± 1.6 mM with MDA-MB-231 cells [5] (Michaelis-Menten curve, read-out: Km MDA-231 cells (Michaelis Menten curves)); 0.308 ± 0.102 mM in the data set with MCF-7 cells [8] (setting [13]); 8.93 ± 1.1 mM in the data set on MCF-7 cells [8] (setting [14]). Also, the “Vmax, transporter II, MDA-MB-231” value in the data set on MDA-MB-231 cells [5] (setting [11]) is 2.091 ± 0.15 nmol/min/mg. For the same molecule, the “Vmax MDA-231 cells (Michaelis Menten curves)” value in the data set with MDA-MB-231 cells [5] (Michaelis-Menten curve) is reported as 4.044 ± 1.302 nmol/min/mg. In addition, in the data set on MCF-7 cells [6], the “uptake in the presence of disopyramide, MCF-7” value was “significantly reduced”. Besides, in the data set on MCF-7 cells [6], the “uptake in the presence of lopinavir, MCF-7” value was “significantly decreased”. Further, the “uptake in the presence of methenamine, MCF-7” value in the data set on MCF-7 cells [6] was “significantly decreased”. Moreover, the “interactions with OCT, PMAT and MATE1 transporters, MCF-7” value in the data set on MCF-7 cells [6] is recorded as “OCT1, PMAT, MATE1”. Further, the “uptake into MCF-7 cells” value in the data set with MCF-7 cells [8] (setting [16]) stood at 1.11 ± 0.16 nmol/min/mg protein. The “Vmax, transporter I, MCF-7” value with MCF-7 cells [8] (setting [9]) amounted to 0.7898 ± 0.12 nmol/min/mg. Besides, the “Vmax, transporter II, MCF-7” value in the data set with MCF-7 cells [8] (setting [11]) came out at 13.64 ± 1.55 nmol/min/mg.
